Substitutions are numbered along the chain they refer to.

The kcat/KM is the turnover number divided by the Michaelis constant.

Assay [1] deals with T1, E. coli KARI Ec_IlvC variant Ec_IlvC^B8-his6 (Q110V, S78D), SEQ ID NO: 27 (Escherichia coli, UniProt P05793, Q110V/S78D).
T1 sequence (P05793 with tags, fused parts or gaps S78D/Q110V): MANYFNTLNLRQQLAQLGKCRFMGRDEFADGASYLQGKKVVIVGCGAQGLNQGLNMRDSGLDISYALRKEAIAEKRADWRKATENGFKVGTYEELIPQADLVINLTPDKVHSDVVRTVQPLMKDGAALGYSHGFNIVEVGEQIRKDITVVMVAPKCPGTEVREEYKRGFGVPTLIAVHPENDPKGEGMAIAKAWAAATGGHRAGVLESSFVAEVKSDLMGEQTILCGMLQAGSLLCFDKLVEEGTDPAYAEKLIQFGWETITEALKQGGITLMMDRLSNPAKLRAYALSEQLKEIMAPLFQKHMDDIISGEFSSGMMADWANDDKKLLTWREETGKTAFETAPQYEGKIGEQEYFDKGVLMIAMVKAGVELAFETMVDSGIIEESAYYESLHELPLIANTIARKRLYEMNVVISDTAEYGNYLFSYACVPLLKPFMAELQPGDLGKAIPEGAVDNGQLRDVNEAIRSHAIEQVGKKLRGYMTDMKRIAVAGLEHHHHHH
Nature of the assay: KARI cuvette assay, purified Ec_IlvC^B8-his6. In kind it is biochemical. As for the experimental part:
(§1) KARI cuvette assay: KARI activity was assayed kinetically by monitoring the decrease in NAD(P)H concentration by measuring the absorbance at 340 nm. A reaction buffer was prepared containing 250 mM potassium phosphate pH 7, 1 mM DTT and 10 mM MgCl2. Cell pellets were resuspended (0.25 g wet weight/mL buffer) in 250 mM potassium phosphate (KPi) buffer containing 1 mM DTT and 10 mM MgCl2. The resuspended cells were lysed by sonication for 1 min with a 50% duty cycle and pelleted at 11000×g and 4° C. for 15 min. A reaction mixture consisting of 910 μl reaction buffer, 50 μl acetolactate, and 20 μl lysate was prepared in a cuvette. The reaction was initiated by addition of 20 μL of 10 mM NAD(P)H. A substrate free control was conducted using reaction buffer without the addition of acetolactate.
Purification of KARI: Cell pellets used for purification were resuspended in purification buffer A (20 mM Tris, 20 mM imidazol, 100 mM NaCl, 10 mM MgCl2, pH 7.4). KARI was purified by IMAC (Immobilized metal affinity chromatography) over a 1 ml Histrap High Performance (histrap HP) column pre-charged with Nickel (GE Healthcare) using an Akta FPLC system (GE Healthcare). […]

The target in assay [2] is T2, E. coli KARI Ec_IlvC variant Ec_IlvC^2H10-his6 (A71S, R76D, S78D, Q110A), SEQ ID NO: 31 (Escherichia coli, UniProt P05793, A71S/Q110A/R76D/S78D).
T2 construct: T37 values cited for the gene on pGV1976
T2 sequence (P05793 with tags, fused parts or gaps A71S/R76D/S78D/Q110A): T1 sequence (P05793 with tags, fused parts or gaps S78D/Q110V) with A71S, R76D, V110A
Nature of the assay: KARI assay, purified Ec_IlvC^2H10-his6. In kind it is biochemical. As to conditions: acetolactate as substrate. As for the experimental part:
as §1, with “The reaction was initiated by addition of 20 μL of 10 mM NAD(P)H. A substrate free control was conducted using reaction buffer without the addition of acetolactate.” left out
Only 20% of the enzymes of the recombination library were active on NADH. After screening 1,000 clones using the NADH depletion assay at 340 nm, 26 KARI variants were selected for a rescreen by the high-throughput assay described in Example 14 and eight thereof were expressed in 25 ml LBamp medium in shake flasks according to the protocol for cell growth and protein expression in shake flasks as described in Example 14, purified according to the protocol for purification of KARI enzymes as described in Example 14, and NAD(P)H depletion at 340 nm was measured again. […] The KM values of variants Ec_llvC^2H10-his6 and Ec_llvC^6E6-his6 were measured and the catalytic efficiencies were calculated.

With `NC(=O)C1=CN([C@@H]2O[C@H](COP(=O)(O)OP(=O)(O)OC[C@H]3O[C@@H](n4cnc5c(N)ncnc54)[C@H](O)[C@@H]3O)[C@@H](O)[C@H]2O)C=CC1` [NADH, nicotinamide adenine dinucleotide], the specificity constant (kcat/KM) was 31775 M⁻¹ s⁻¹ in assay [1] (purified, acetolactate as substrate) and 60,322 M^−1 * s^−1 in assay [2]. Moreover, the “(kcat/KM with NADH)/(kcat/KM of Ec_IlvC^his6 with NADPH)” value in assay [1] (relative to Ec_IlvC^his6 with NADPH) is 36%.

For the origin of these results see patent US8097440B1, “Engineered microorganisms capable of producing target compounds under anaerobic conditions” (Gevo, Inc., priority 2008, dated 2012).
